For one data set, the system named is OVCAR8TR cells. The data set can be described thus: Reversal of drug resistance, cytotoxicity (MTT) assay in OVCAR8TR. The format is cell-based, human. The conditions noted are these: Paclitaxel. On the procedure: FIGS. 1 (a-b) are graphs that depict the effects of NSC23925 on drug sensitivity in ovarian cancer cells; 1(a) depicts the effects of NSC23925 on sensitive (SKOV-3) and resistant (SKOV-3TR) cells; 1(b) depicts the effects of NSC23925 on sensitive (OVCAR8) and resistant (OVCAR8TR) cells. Cells were treated with the paclitaxel and NSC23925 in RPMI1640 complete media at the indicated concentrations. The relative sensitivity of each line to paclitaxel was determined by MTT assay, as described below in the Examples section, 6 days post treatment. A: Reversal of paclitaxel resistance by NSC23925 in SKOV-3TR cells. B: Reversal of paclitaxel resistance by NSC23925 in OVCAR8TR cells.
Drug cytotoxicity was assessed in vitro using the MTT assay. SKOV-3 and SKOV-3TR cells were used herein. Briefly, 2×10^3 cells per well were plated in 96-well plates in culture medium (RPMI 1640 supplemented with 10% fetal bovine serum and penicillin/streptomycin) containing increasing concentrations of drug. After 7 days of culture, 10 μl MTT (5 mg/ml in PBS, obtained from Sigma) were added to each well and the plates were incubated for 4 h. The resulting formazan product was dissolved with acid-isopropanol and the absorbance at a wavelength of 490 nm (A490) was read on a SPECTRAmax® Microplate Spectrophotometer (Molecular Devices, Sunnyvale, Calif.). The absorbance values were normalized by assigning the value of the control line in the medium without drug to 1.0 and the value of the no cell control to 0. Experiments were performed in triplicate.

The target of data set [1] is T1, Pgp1 efflux in SKOV-3TR and OVCAR8TR cells (Homo sapiens, UniProt P08183).
T1 construct: endogenous in cells; host or cells: SKOV-3TR and OVCAR8TR (paclitaxel-selected resistant lines, not transfected)
The data set can be described thus: Calcein AM drug efflux assay (VYBRANT kit) in resistant cells. Type of data set: cell-based. On the procedure:
Calcein-AM assay was optimized and performed using the VYBRANT™ multi-drug resistance assay kit (Invitrogen/Molecular Probes) and SKOV-3TR cells. Cells were seeded at 50,000 cells/well (100 μl of culture medium) in a 96-well plate and incubated for 24 h. […] The cell fluorescence images were acquired by a fluorescence microscope (A, C) and quantities of fluorescence were measured in a SPECTRAmax Microplate Spectrofluorometer (B, D).
(§1) The VYBRANT™ multi-drug resistance assay kit (Invitrogen/Molecular Probes) was used to measure drug efflux properties of different resistant cell lines. This assay utilizes the fluorogenic dye calcein acetoxymethyl ester (calcein AM) as a substrate for efflux activity of Pgp1 or other membrane pump ABC proteins. Calcein AM is taken up by cells and hydrolyzed by cytoplasmic esterases to fluorescent calcein. Calcein AM is well retained in the cytosol. However, multi-drug resistant cells expressing high levels of Pgp1 rapidly extrude non-fluorescent calcein AM from the plasma membrane, reducing accumulation of fluorescent calcein in the cytosol. Drug sensitive and resistant cells (3×10^5) were cultured in 96-well plate for 24 hours and then incubated in 0.25 μM calcein AM in 150 μl total volume. After 30 minutes, the cells in plate were washed and centrifuged twice with 200 μl cold RPMI1640 culture medium, and cell fluorescence was measured at a […] on a SPECTRAMAX™ Microplate Spectrofluorometer (Molecular Devices).

For a further data set, the system named is SKOV-3 and OVCAR8 cells. Description: Calcein AM drug efflux assay in parental drug-sensitive cells. The format is cell-based, human. The conditions noted are these: SKOV-3 and OVCAR8, do not overexpress Pgp1.
Text: as §1

The test system of data set [2] is SKOV-3TR and KHOSR2 cells. The data set can be described thus: Flow cytometry of intracellular doxorubicin retention. The format is cell-based, human. The conditions noted are these: 5 μM doxorubicin, NSC23925 0.5 μM, 1 hour. The procedure:
FIG. 9 depicts the intracellular retention of doxorubicin from multidrug resistant SKOV-3TR and KHOSR2 cells in the presence of 5 μM doxorubicin with or without treatment of NSC23925 (0.5 μM). Cells were treated for 1 hour before the flow cytometry analysis.

What is called IC50 is the point on the concentration scale where inhibition reaches its midpoint.

T1 sequence (P08183 whole entry): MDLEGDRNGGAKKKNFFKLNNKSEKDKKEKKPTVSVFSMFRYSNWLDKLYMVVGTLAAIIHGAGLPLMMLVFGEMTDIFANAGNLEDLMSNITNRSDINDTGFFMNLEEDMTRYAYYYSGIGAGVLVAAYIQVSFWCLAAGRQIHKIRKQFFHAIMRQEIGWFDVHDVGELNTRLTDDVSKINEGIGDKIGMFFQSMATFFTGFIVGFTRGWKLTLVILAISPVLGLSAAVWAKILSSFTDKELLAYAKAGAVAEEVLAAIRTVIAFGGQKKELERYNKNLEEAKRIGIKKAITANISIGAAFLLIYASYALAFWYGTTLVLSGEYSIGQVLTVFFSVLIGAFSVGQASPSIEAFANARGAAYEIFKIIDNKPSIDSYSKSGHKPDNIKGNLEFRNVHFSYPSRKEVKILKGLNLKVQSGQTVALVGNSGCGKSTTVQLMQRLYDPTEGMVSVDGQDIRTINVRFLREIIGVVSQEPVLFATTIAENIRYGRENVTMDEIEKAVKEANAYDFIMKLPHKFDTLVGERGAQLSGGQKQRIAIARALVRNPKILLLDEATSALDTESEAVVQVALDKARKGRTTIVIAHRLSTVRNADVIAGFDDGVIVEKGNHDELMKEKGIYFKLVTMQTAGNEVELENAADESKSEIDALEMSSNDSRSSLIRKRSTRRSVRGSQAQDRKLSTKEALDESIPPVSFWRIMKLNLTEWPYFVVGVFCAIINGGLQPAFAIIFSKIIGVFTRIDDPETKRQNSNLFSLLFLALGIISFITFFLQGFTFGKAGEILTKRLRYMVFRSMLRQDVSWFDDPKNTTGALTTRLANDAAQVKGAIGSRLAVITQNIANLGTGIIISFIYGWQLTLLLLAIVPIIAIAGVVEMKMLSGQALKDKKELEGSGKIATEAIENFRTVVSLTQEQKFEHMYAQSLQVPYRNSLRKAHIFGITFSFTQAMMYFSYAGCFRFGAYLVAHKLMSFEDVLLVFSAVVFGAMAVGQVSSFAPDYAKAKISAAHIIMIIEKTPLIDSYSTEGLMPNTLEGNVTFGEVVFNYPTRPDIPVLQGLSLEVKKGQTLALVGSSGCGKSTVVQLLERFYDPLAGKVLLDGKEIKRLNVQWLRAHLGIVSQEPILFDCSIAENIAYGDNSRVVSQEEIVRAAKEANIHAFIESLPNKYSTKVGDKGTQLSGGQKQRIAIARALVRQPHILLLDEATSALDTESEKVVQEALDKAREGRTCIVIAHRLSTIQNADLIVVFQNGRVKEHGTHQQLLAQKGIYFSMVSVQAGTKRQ

In the case of `COc1ccc(-c2cc(C(O)C3CCCCN3)c3ccccc3n2)cc1` (centres unmarked) [NSC23925, (2-(4-methoxyphenyl)quinolin-4-yl)(piperidin-2-yl)methanol], in the data set with OVCAR8TR cells (Homo sapiens, add NSC23925 0.1 μM, read-out: OVCAR8TR IC50 of Paclitaxel), the IC50 was 127 ± 27 nM. In the data set with OVCAR8TR cells (add NSC23925 0.5 μM), the “fold-reversal of drug resistance, OVCAR8TR” value is given as “(4.7) fold”. In data set [1], the “Potency compared with verapamil and CsA (calcein AM accumulation)” value is listed as “significantly greater”. For the same molecule, in data set [1] (SKOV-3TR and OVCAR8TR), the “Half-maximal reversal of calcein AM accumulation deficit” value is reported as 100 nM, the “Lowest concentration with prominent effect on accumulation of calcein AM” value is 1 nM and the “Near maximal reversal of calcein AM accumulation deficit” value is recorded as 500 nM. Besides, in the data set with SKOV-3 and OVCAR8 cells, the “Effect on accumulation of calcein AM in parental drug-sensitive cells” value was “no evident effect”. Further, the “Accumulation of doxorubicin by flow cytometric analysis” value in data set [2] was “increases the accumulation of doxorubicin”.

The values are drawn from patent US8802702B2, “Compounds for reducing drug resistance and uses thereof” (The General Hospital Corporation, priority 2009, dated 2014).
